Results reported in patent US20190077774A1, “PEROXISOME PROLIFERATOR-ACTIVATED RECEPTOR AGONISTS” (City of Hope, priority 2017, published 2019).
Where “and” joins values, the source holds several entries; their conditions need not be identical. Equal entries are not always repeated. Entries after “also recorded” stand apart in the source; their conditions may differ.

Legend:
[1] = Body weight and food intake of treated mice; assay type: in vivo
Description: (§1) Next, we would like to investigate the therapeutic potential of DY121 to see if it could be candidate for treating NAFLD/NASH. Note that the pathogenesis of NASH has not yet been fully elucidated so far; however, the ‘two-hit’ theory is widely accepted. The first hit is the accumulation of fatty acids in the liver to cause steatosis. […] The newly produced PPARα agonist DY121 and its analogs, as well as WY100=WY14643 and GW3 (GW7647), were evaluated in C57Bl/6J female mice for their ability to alter serum triglyceride, liver gene expression, and glucose. Fibric acid derivatives (100 mg/kg/day) was used as a control, WY100 (WY14, 643, 100 mg/kg/day), GW3 (GW7647-positive control, 3 mg/kg/day), DY121 (˜3 mg/kg/day), respectively. DY series compounds and controls administered once to C57Bl/6J female mice at 8 weeks of age. Mice were treated at 3 mg/kg for all compounds except WY14643 (100 mg/kg).

[2] = system: C57Bl/6J female mice; test: Serum triglyceride and lipid effects in C57Bl/6J female mice; assay type: in vivo
Description: FIG. 5. Ligand Screening Results: DY series compounds and controls administered once to C57Bl/6J female mice at 8 weeks of age. Mice were treated at 3 mg/kg for all compounds except WY14643 (100 mg/kg). Compounds gavaged at 0900; mice sacrificed 24 h later. Ordered by degree of effect on triglyceride lowering. According to our screening test, DY series compounds reduce triglycerides.
as §1

[3] = biological target: T1, human PPARα (Homo sapiens, UniProt Q07869); test: PPAR-GAL4 transactivation assay in transiently transfected CV-1 cells; assay type: cell-based
T1 construct: expressed in transfected cells; host or cells: CV-1 (monkey kidney) cells, transient transfection
T1 sequence (Q07869 159-468): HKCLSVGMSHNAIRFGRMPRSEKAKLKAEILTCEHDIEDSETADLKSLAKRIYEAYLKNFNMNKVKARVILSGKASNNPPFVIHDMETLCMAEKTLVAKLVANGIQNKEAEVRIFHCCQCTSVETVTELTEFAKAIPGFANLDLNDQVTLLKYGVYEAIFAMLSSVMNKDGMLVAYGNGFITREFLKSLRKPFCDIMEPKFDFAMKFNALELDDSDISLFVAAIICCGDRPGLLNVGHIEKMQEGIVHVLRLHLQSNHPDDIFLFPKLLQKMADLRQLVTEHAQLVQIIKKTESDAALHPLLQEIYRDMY
Description: (§2) To assess the functional transcriptional activity of these compounds, cell-based assays using chimeric receptor Gal4 DNA-binding domain (DBD)-NR ligand binding domain cotransfection assay (LBDs of PPARα, PPARγ, and PPARδ) were performed. As an initial screen to determine the PPARα activity and selectivity, all compounds were evaluated for in vitro potency and selectivity by transfection testing, using CV-1 cells transfected with human and mouse PPARs. MH100×4 is a luciferase reporter with four copies of a GAL4 UASG response element, where GAL-I refers to the ligand-binding domain of the indicated receptor fused to the C-terminus of the GAL4 DNA-binding domain. Assays were performed using a Biomek automated workstation in which the genes for the nuclear receptor, as well as a plasmid containing a response element upstream of a luciferase cDNA, are transfected into CV-1 cells. Compounds were evaluated for their ability to activate human and mouse PPARs at […] test concentrations. […] The transactivation activity of the series of compounds (DY121-132, 10a-g) toward PPARα was expressed as EC50, which is the concentration of the test compound that affords half-maximum activity, as summarized in Table 1.
Cell-based reporter gene assays Cell based transactivation assays were performed in CV 1 cells as described (Forman, et al.). PPARα activity was assayed with a GAL4 reporter construct and fusion proteins containing the ligand binding domains of human PPARα, human PPARγ and human PPARδ linked to the DNA binding domain of yeast GAL4. Reporter constructs (300 ng/10^5 cells) and cytomegalovirus-driven expression vectors (20-50 ng/10^5 cells) were added as indicated along with CMX-b-gal (500 ng/10^5 cells) as an internal control. Cells were transiently transfected by Lipofectamine as described. Cells were incubated with DNA complexed liposomes for 2 h and subsequently treated for approximately 45 h with phenol red free DMEM FBS containing the indicated compounds. After exposure to ligand, the cells were harvested and assayed for luciferase and β-galactosidase activity. All points were assayed in triplicate and varied by less than 15%. Each experiment was repeated three or more times with similar results. Fold activation is reported.
(§3) In vitro binding and transfection studies. As an initial screen to determine the PPARα, PPARγ, and PPARδ activity, all compounds were evaluated for in vitro potency and selectivity by transfection testing, using CV-1 cells transfected with human and mouse PPARs. MH100×4 is a luciferase reporter with four copies of a GAL4 USAG response element, where GAL-I refers to the ligand-binding domain of the indicated receptor fused to the C-terminus of the GAL4 DNA-binding domain. Assays were performed using a Biomek automated workstation in which the gene for the nuclear receptor, as well as a plasmid containing a response element upstream of a luciferase cDNA, are transfected into CV-1 cells. Compounds were evaluated for their ability to activate human PPARs at 1, 2.5, 3, and 5 uM test concentrations.
(§4) Compounds were screened for agonist activity towards PPAR-GAL4 chimeric receptors in transiently transfected CV-1 cells as described. EC50 is the concentration of test compound that gave 50% maximum efficacy.

[4] = biological target: T2, mouse PPARα (Mus musculus, UniProt P23204); test: as above; assay type: cell-based; conditions: PPAR-GAL4 chimeric receptor, read-out: EC50(nM) mPPARα
T2 construct: expressed in transfected cells; host or cells: CV-1 (monkey kidney) cells, transient transfection
T2 sequence (P23204 159-468): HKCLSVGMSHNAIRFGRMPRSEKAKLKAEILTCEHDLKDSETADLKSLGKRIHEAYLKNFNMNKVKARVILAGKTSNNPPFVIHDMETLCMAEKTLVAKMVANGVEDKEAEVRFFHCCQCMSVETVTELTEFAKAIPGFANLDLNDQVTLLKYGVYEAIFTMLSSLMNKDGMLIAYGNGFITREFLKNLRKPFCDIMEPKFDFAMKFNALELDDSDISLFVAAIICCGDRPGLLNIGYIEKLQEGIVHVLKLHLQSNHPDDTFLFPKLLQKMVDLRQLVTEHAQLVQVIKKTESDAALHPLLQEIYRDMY
Description: as §2, §3, §4

- fold greater PPARα agonistic activity compared to LY518674 [3]: 42 fold
- EC50 ([3]; PPAR-GAL4 chimeric receptor, CV-1 cells, read-out: EC50(nM) hPPARα): 0.85 nM and 1 nM
- selectivity over PPARγ and PPARδ ([3]; PPAR-GAL4 transactivation assays): excellent selectivity
- EC50 [4]: 3 nM
SMILES: COc1ccc(Cn2c(CCCc3ccc(OC(C)(C)C(=O)O)cc3)nn(Cc3ccc(C)cc3)c2=O)cc1 [10a, 2-(4-{3-[4-(4-Methoxy-benzyl)-1-(4-methyl-benzyl)-5-oxo-4,5-dihydro-1H[1,2,4]triazol-3-yl]-propyl}-phenoxy)-2-methyl-propionic acid]
- body weight ([1]; 24 h vs 72 h (FIG. 8)): unaffected
- body weights and food intake ([1]; vs control group): no significant differences
- hepatic TG accumulation ([2]; 3 mg/kg DY121, WY14643 100 mg/kg): suppressed; also recorded: more apparent
- serum triglyceride (TG) concentrations ([2]; DY121-treated mice vs control): significantly decreased
